In ChEMBL document CHEMBL1909046, “DrugMatrix in vitro pharmacology data”:
*1 amine or outer side, *2 acyl side, *3 side chain or, on linkers, in order; H or OH if unused. Where a SMILES comes first, the peptide text is derived from it. Bridges are numbered along the chain shown (N, C = ends). Roman numbers before positions name the chains, in order. [ ]: non-standard residue; d: D form. Actinocin(1to9) = Cc1c2oc3c(C)ccc(C(=O)[*:2])c3nc-2c(C(=O)[*:1])c(N)c1=O; NMeV = CN[C@H](C(=O)O)C(C)C; Sar = CNCC(=O)O

Key:
[1] = biological target: 5-hydroxytryptamine receptor 6 (Homo sapiens, UniProt P50406); format: cell membranes, HeLa, Membrane; conditions: hela; further: in other assays of this panel Not Active means under 50% inhibition at 10 µM
Sequence of 5-hydroxytryptamine receptor 6 (P50406 whole entry): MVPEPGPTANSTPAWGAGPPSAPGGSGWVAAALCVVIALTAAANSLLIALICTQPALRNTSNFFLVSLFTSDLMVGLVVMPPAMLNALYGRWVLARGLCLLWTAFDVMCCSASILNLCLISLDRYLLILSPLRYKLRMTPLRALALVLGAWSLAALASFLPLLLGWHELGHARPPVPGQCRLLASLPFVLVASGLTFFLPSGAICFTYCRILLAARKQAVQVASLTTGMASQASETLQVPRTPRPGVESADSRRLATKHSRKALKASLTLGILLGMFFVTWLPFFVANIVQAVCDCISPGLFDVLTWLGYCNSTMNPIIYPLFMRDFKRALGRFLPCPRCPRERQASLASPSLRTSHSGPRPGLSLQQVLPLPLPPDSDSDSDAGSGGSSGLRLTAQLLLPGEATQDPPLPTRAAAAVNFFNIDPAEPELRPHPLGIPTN

[2] = biological target: Mitogen-activated protein kinase 3 (Homo sapiens, UniProt P27361); assay: DRUGMATRIX: Protein Serine/Threonine Kinase, ERK1 enzyme inhibition (substrate: Myelin Basic Protein); design: species or system Escherichia coli; conditions: Not Active = under 50% inhibition at 10 µM
Sequence of Mitogen-activated protein kinase 3 (P27361 whole entry): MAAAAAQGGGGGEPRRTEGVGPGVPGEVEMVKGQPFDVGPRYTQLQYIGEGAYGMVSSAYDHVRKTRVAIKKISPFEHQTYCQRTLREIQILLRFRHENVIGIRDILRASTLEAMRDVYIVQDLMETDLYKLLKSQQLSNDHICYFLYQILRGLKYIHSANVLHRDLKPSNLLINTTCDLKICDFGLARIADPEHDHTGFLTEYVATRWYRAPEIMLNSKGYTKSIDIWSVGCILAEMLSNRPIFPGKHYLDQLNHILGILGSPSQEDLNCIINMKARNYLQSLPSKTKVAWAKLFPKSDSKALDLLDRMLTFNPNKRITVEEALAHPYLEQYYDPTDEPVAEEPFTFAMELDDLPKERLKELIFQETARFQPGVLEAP

[3] = biological target: Glycine receptor (Rattus norvegicus, UniProt P22771+P24524+P07727+P20781); format: cell membranes, Wistar, Spinal cord, Membrane; further: in other assays of this panel Not Active means under 50% inhibition at 10 µM
[4] = DRUGMATRIX: Glutamate, NMDA, Phencyclidine radioligand binding (ligand: [3H] TCP); format: cell membranes, Rattus norvegicus, Wistar, Cerebral cortex, Membrane; conditions: Not Active = under 50% inhibition at 10 µM
[5] = biological target: T1, Amine oxidase [flavin-containing] A (Homo sapiens, UniProt P21397); assay: DRUGMATRIX: Monoamine Oxidase MAO-A enzyme inhibition (substrate: Kynuramine); design: species or system BTI-TN-5B1-4; conditions: bti-tn-5b1-4; Not Active = under 50% inhibition at 10 µM
T1 sequence (P21397 whole entry): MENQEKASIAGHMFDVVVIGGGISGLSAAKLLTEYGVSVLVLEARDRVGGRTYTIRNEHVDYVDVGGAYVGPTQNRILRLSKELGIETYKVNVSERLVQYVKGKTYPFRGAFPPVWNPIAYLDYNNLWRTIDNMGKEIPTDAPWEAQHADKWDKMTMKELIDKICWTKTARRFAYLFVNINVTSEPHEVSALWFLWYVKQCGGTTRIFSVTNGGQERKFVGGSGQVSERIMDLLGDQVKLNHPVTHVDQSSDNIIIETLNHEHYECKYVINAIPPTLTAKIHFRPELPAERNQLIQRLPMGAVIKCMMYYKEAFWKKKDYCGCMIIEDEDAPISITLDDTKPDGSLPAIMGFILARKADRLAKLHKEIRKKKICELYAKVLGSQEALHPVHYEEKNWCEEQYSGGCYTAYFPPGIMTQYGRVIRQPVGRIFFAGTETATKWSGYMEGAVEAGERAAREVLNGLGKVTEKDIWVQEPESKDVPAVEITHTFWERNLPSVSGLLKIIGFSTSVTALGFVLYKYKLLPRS

[6] = DRUGMATRIX: Phosphodiesterase PDE3 enzyme inhibition (substrate: [3H]cAMP + cAMP); format: tissue-based, Homo sapiens; conditions: platelet; Not Active = under 50% inhibition at 10 µM
[7] = biological target: cGMP-specific 3',5'-cyclic phosphodiesterase (Homo sapiens, UniProt O76074); assay: DRUGMATRIX: Phosphodiesterase PDE5 enzyme inhibition (substrate: [3H]cGMP + cGMP); format: tissue-based; conditions: platelet; Not Active = under 50% inhibition at 10 µM
[8] = biological target: T2, Alpha-1D adrenergic receptor (Homo sapiens, UniProt P25100); format: cell membranes, HEK293, Membrane; conditions: hek293; further: in other assays of this panel Not Active means under 50% inhibition at 10 µM
T2 sequence (P25100 whole entry): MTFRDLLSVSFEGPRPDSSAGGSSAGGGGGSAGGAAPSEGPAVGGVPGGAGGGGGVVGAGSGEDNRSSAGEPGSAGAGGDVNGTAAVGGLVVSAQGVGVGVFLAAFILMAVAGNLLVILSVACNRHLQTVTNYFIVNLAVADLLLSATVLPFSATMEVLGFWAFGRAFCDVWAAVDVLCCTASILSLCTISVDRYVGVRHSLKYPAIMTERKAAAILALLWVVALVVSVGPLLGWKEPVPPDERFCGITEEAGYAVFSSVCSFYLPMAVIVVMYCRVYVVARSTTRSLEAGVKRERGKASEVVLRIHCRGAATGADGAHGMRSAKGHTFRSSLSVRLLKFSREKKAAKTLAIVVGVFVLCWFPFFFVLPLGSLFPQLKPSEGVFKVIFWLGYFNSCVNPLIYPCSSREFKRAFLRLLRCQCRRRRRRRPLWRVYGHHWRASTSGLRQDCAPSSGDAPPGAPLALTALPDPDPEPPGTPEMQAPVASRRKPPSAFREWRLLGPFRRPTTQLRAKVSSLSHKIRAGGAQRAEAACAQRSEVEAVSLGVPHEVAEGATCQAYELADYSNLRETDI

Cc1cc(C2CCCCC2)n(O)c(=O)c1 [CICLOPIROX]
Not Active: IC50 [1] | IC50 [2] | IC50 [3] | IC50 [4] | Ki [4] | IC50 [5] | IC50 [6] | Ki [6] | IC50 [7] | IC50 [8]

Cc1c(C)c2c(c(C)c1O)CC[C@@](C)(CCC[C@H](C)CCC[C@H](C)CCCC(C)C)O2 [ALPHA-TOCOPHEROL]
Not Active: IC50 [1] | IC50 [2] | IC50 [3] | IC50 [4] | Ki [4] | IC50 [5] | IC50 [6] | Ki [6] | IC50 [7] | IC50 [8]

Cc1c2oc3c(C)ccc(C(=O)N[C@@H]4C(=O)N[C@H](C(C)C)C(=O)N5CCC[C@H]5C(=O)N(C)CC(=O)N(C)[C@@H](C(C)C)C(=O)O[C@@H]4C)c3nc-2c(C(=O)N[C@@H]2C(=O)N[C@H](C(C)C)C(=O)N3CCC[C@H]3C(=O)N(C)CC(=O)N(C)[C@@H](C(C)C)C(=O)O[C@@H]2C)c(N)c1=O [DACTINOMYCIN] (I: T[dV]P[Sar][NMeV] / II: T[dV]P[Sar][NMeV]; ester I:1-I:C, II:1-II:C; linker I:N-II:N via Actinocin(1to9))
Not Active: IC50 [1] | IC50 [2] | IC50 [3] | IC50 [4] | Ki [4] | IC50 [5] | IC50 [6] | Ki [6] | IC50 [7] | IC50 [8]

CC1(C)S[C@@H]2[C@H](NC(=O)Cc3ccccc3)C(=O)N2[C@H]1C(=O)O [PENICILLIN G]
Not Active: IC50 [1] | IC50 [2] | IC50 [3] | IC50 [4] | Ki [4] | IC50 [5] | IC50 [6] | Ki [6] | IC50 [7] | IC50 [8]

C[C@H](CCC(=O)O)[C@H]1CC[C@H]2[C@@H]3[C@H](O)C[C@@H]4C[C@H](O)CC[C@]4(C)[C@H]3C[C@H](O)[C@]12C [CHOLIC ACID]
Not Active: IC50 [1] | IC50 [2] | IC50 [3] | IC50 [4] | Ki [4] | IC50 [5] | IC50 [6] | Ki [6] | IC50 [7] | IC50 [8]

CN(Cc1ccc(C(C)(C)C)cc1)Cc1cccc2ccccc12 [BUTENAFINE]
Not Active: IC50 [1] | IC50 [2] | IC50 [3] | IC50 [4] | Ki [4] | IC50 [5] | IC50 [6] | Ki [6] | IC50 [7] | IC50 [8]

N=C(N)NCCN1CCCCCCC1 [GUANETHIDINE]
Not Active: IC50 [1] | IC50 [2] | IC50 [3] | IC50 [4] | Ki [4] | IC50 [5] | IC50 [6] | Ki [6] | IC50 [7] | IC50 [8]

C[C@H]1O[C@@H](O[C@H]2[C@@H](O)C[C@H](O[C@H]3[C@@H](O)C[C@H](O[C@H]4CC[C@@]5(C)[C@H](CC[C@@H]6[C@@H]5C[C@@H](O)[C@]5(C)[C@@H](C7=CC(=O)OC7)CC[C@]65O)C4)O[C@@H]3C)O[C@@H]2C)C[C@H](O)[C@@H]1O [DIGOXIN]
Not Active: IC50 [1] | IC50 [2] | IC50 [3] | IC50 [4] | Ki [4] | IC50 [5] | IC50 [6] | Ki [6] | IC50 [7] | IC50 [8]

CCCCc1nc(Cl)c(CO)n1Cc1ccc(-c2ccccc2-c2nnn[nH]2)cc1 [LOSARTAN]
Not Active: IC50 [1] | IC50 [2] | IC50 [3] | IC50 [4] | Ki [4] | IC50 [5] | IC50 [6] | Ki [6] | IC50 [7] | IC50 [8]

Nc1c(Br)cc(Br)cc1CN[C@H]1CC[C@H](O)CC1 [AMBROXOL]
Not Active: IC50 [1] | IC50 [2] | IC50 [3] | IC50 [4] | Ki [4] | IC50 [5] | IC50 [6] | Ki [6] | IC50 [7] | IC50 [8]

CNCCc1ccccn1 [BETAHISTINE]
Not Active: IC50 [1] | IC50 [2] | IC50 [3] | IC50 [4] | Ki [4] | IC50 [5] | IC50 [6] | Ki [6] | IC50 [7] | IC50 [8]

O=C(O)CCCc1ccc(N(CCCl)CCCl)cc1 [CHLORAMBUCIL]
Not Active: IC50 [1] | IC50 [2] | IC50 [3] | IC50 [4] | Ki [4] | IC50 [5] | IC50 [6] | Ki [6] | IC50 [7] | IC50 [8]

NC(=O)N1c2ccccc2CCc2ccccc21
Not Active: IC50 [1] | IC50 [2] | IC50 [3] | IC50 [4] | Ki [4] | IC50 [5] | IC50 [6] | Ki [6] | IC50 [7] | IC50 [8]

NCCCCCC(=O)O [AMINOCAPROIC ACID]
Not Active: IC50 [1] | IC50 [2] | IC50 [3] | IC50 [4] | Ki [4] | IC50 [5] | IC50 [6] | Ki [6] | IC50 [7] | IC50 [8]

C=C(C)C1(O)OC(=O)C=C1OC (stereo unspecified) [PENICILLIC ACID]
Not Active: IC50 [1] | IC50 [2] | IC50 [3] | IC50 [4] | Ki [4] | IC50 [5] | IC50 [6] | Ki [6] | IC50 [7] | IC50 [8]

CC1(C)O[C@@H]2C[C@H]3[C@@H]4CCC5=CC(=O)CC[C@]5(C)[C@@]4(F)[C@@H](O)C[C@]3(C)[C@]2(C(=O)CCl)O1 [HALCINONIDE]
Not Active: IC50 [1] | IC50 [2] | IC50 [3] | IC50 [4] | Ki [4] | IC50 [5] | IC50 [6] | Ki [6] | IC50 [7] | IC50 [8]

LIPOPOLYSACCHARIDE E. COLI O55:B5
Not Active: IC50 [1] | Ki [1] | IC50 [2] | Ki [2] | IC50 [3] | Ki [3] | IC50 [4] | Ki [4] | IC50 [5] | Ki [5] | IC50 [6] | Ki [6] | IC50 [7] | Ki [7] | IC50 [8] | Ki [8]

COc1cc2c3cc1Oc1cc(ccc1O)C[C@@H]1c4c(cc(OC)c(O)c4Oc4ccc(cc4)C[C@@H]3N(C)CC2)CC[N+]1(C)C.[Cl-]
Not Active: IC50 [1] | IC50 [2] | IC50 [3] | IC50 [4] | Ki [4] | IC50 [5] | IC50 [6] | Ki [6] | IC50 [7] | IC50 [8]

Cc1cc(C(C#N)c2ccc(Cl)cc2)c(Cl)cc1NC(=O)c1cc(I)cc(I)c1O (stereo unspecified) [CLOSANTEL]
Not Active: IC50 [1] | IC50 [2] | IC50 [3] | IC50 [4] | Ki [4] | IC50 [5] | IC50 [6] | Ki [6] | IC50 [7] | IC50 [8]

CC(NC(C)(C)C)C(=O)c1cccc(Cl)c1 (stereo unspecified) [BUPROPION]
Not Active: IC50 [1] | IC50 [2] | IC50 [3] | IC50 [4] | Ki [4] | IC50 [5] | IC50 [6] | Ki [6] | IC50 [7] | IC50 [8]
